How the values were obtained:
[1] = system: anti-idiotypic T cells; assay: Treatment with p277 in IFA, proliferation of spleen cells to C9VDJ peptide (FIG. 9); format: in vivo; settings: NOD female mice, 12 weeks old, treated in IFA subcutaneously; 2 or 5 weeks after treatment
Experimental: FIGS. 4A and B Spontaneous anti-idiotypic responses in naive female (FIG. 4A) and male (FIG. 4B) NOD mice. T cell responses to hsp60 (idiotype) and to the C9 clone (anti-idiotype) were measured in naive female and male NOD mice. Ten female and 10 male NOD mice were sacrificed at 4, 6, 8, 10, 13 and 21 week of age and their spleens were taken for a T cell proliferative assay. Spleen cells were tested at 200,000 cells/0.2 cc in microtiter wells for proliferative responses to either human hsp60 (5 μg/ml) or the C9 clone (20,000 cells/well irradiated at 5000 rad). The a proliferative response was measured by adding 3H-thymidine to the culture for the last 16 h of a 72 h stimulation. The incorporated 3H-thymidine was measured on a β-counter and the stimulation index (SI) was calculated as cpm incorporation in the presence of antigen/cpm incorporation in the absence of antigen. Individual mice were tested separately and the mean±SD for each time point was calculated.
NOD female mice, 12 weeks old, were immunized with p277 or p278 in IFA, […] per mouse subcutaneously, or left untreated 10 mice per group. At 2 or 5 weeks after treatment 5 mice of each group were sacrificed their spleens removed and tested individually in a proliferation assay to C9VDJ peptide 5 μg/ml, as described in FIG. 4.

[2] = system: NOD mice; settings: references (3), (4); cited from earlier work

**Q.** What does the source list for VLGGGCALLRCIPALDSLTPANED [p277]?
**A.** Anti-C9 response (proliferation to C9VDJ peptide 5 μg/ml) [1]: induces anti-C9 response; Effect of vaccination on diabetes [2]: prevent (3) or even reverse diabetes

Source: patent US6096314A, “Peptides and pharmaceutical compositions comprising them” (Yeda Research and Development Co. Ltd., priority 1994, dated 2000)
